According to patent US10208059B2, “Heterocyclic modulators of HIF activity for treatment of disease” (Board of Regents, University of Texas System, priority 2012, dated 2019):
“Also recorded” adds a separate entry of the source.

Experiments:
D423 cells = assay: Glioblastoma cellular assay, cell numbers; format: cell-based; details: various concentrations
Excerpt: (§1) NB-1, Gli56, and D423 cell lines are deleted for ENO-1 (GLI56 and D423) or PGD, which renders them with reduced glycolytic capacity (Muller, F. et al., Nature, 2012, 488, 337-42).

Gli56 cells = assay: Glioblastoma cellular assay, cell numbers; format: cell-based; details: various concentrations
Excerpt: as §1

NB-1 xenografts = assay: NB-1 xenograft model; format: in vivo; details: daily oral 10 mg/kg (b1183 says 40 mpk), CD-1 nude mice
Procedure: To establish activity and provide in vivo proof of concept, NB-1 cells were implanted into CD-1 nude mice and treated with 40 mpk of the compound of Example 80 po or vehicle daily when tumors reached 400-500 mm^3. Tumor size was measured 3×/week using caliper measurements (FIG. 5).

[1] = system: OCI-AML3 models in NSG mice; assay: Human leukemia model, OCI-AML3 in NSG mice; format: in vivo; details: 10 mg/kg daily oral
Procedure: (§2) The OCI-AML3 cell line was treated with various concentrations of compound for 2 days and the percent of viable cells normalized to control cells treated with DMSO (FIG. 9). OCI-AML3 cells constitutively expressing luciferase were tail vein injected in NSG nude mice. 17 days after cell injection, luciferin was injected into animals and luciferase signal was measured using an IVIS imaging system to determine tumor burden and for randomization of subjects into study groups. On day 18, animals began receiving daily oral doses of vehicle or 10 mpk of the compound of Example 80 which continued throughout the study. On day 28, imaging was performed again to determine tumor burden (FIG. 10).

NB-1 cells = assay: Neuroblastoma cellular assay, cell numbers; format: cell-based; details: various concentrations
Excerpt: as §1

TMD8 cells = assay: Diffuse large B-cell lymphoma (DLBCL) assay, viable cells; format: cell-based; details: varying concentrations, 7 days, Guava ViaCount
Procedure: Diffuse Large B-Cell Lymphoma (DLBCL) Assay
Equal number of TMD8 cells were plated and treated with varying concentrations of the compound of Example 80 for 7 days. Percent of viable cells was determined using Guava ViaCount reagents (EMD Millipore cat #4000-0040) that contains proprietary dyes that enable the determination of the number of live and dead cells in a sample (FIG. 1).

OCI-AML3 cells = assay: Acute myeloid leukemia cell viability; format: cell-based; details: various concentrations, 2 days, normalized to DMSO control
Procedure: as §2

293T-HRE-GFP-luc cells = assay: Cell-based reporter assay for IC50 determinations; details: hypoxia 6 hrs (1% O2), luminescence, read-out: IC50 Classification
Outline: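 Cells carrying an HRE-driven GFP-luciferase reporter, seeded at 12,000/well and held overnight, then given 1:3 serial compound dilutions (DMSO, further diluted 1:50 in medium). After 30 min in normoxia, plates held 6 h in hypoxia (1% O2, 37 °C); luciferase luminescence read, IC50 by four-parameter logistic fit.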

For `Cc1nc(-c2nc(-c3ccc(OC(F)(F)F)cc3)no2)nn1Cc1cccc(N2CCC(S(C)(=O)=O)CC2)c1` [Example 80, 4-Methanesulfonyl-1-{3-[(5-methyl-3-{3-[4-(trifluoromethoxy)phenyl]-1,2,4-oxadiazol-5-yl}-1H-1,2,4-triazol-1-yl)methyl]phenyl}piperidine], the “number of viable D423 cells” value (D423 cells) was “significantly reduced; also recorded: reduced number of viable cells”, the “cell death in Gli56 cells” value (Gli56 cells) was “readily apparent” and the “number of viable Gli56 cells” value (Gli56 cells) was “significantly reduced; also recorded: reduced number of viable cells”. For the same compound, the “tumor growth of NB-1 xenografts” value (NB-1 xenografts) was “reduces the tumor growth”, the “disease burden (tumor burden) by IVIS imaging” value [1] was “reduces disease burden” and the survival ([1]; relative to vehicle) was “significantly increased their survival; also recorded: extends survival”. For the same compound, the “cell death in NB-1 cells” value (NB-1 cells) was “readily apparent”, the “number of viable NB-1 cells” value (NB-1 cells) was “significantly reduced; also recorded: reduced number of viable cells” and the “number/percent of viable TMD8 cells” value (TMD8 cells) was “respond robustly; also recorded: reduced number of viable cells”. For the same compound, the “number of viable OCI-AML3 cells” value (OCI-AML3 cells) was “reduced number of viable cells” and the IC50 (293T-HRE-GFP-luc cells) was under 100 nM.
